Source: US10294202B2, “Pyrrolidinones as herbicides” (FMC Corporation, priority 2013, dated 2019)

Columns and labels:
sedge, umbrella = test: Test B flooded paddy test; format: in vivo, Cyperus difformis; conditions: 500 g ai/ha, Flood; scale of 0 to 100 where 0 is no effect and 100 is complete control
How it was run: (§1)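 Plants were grown to the 2-leaf stage, then pots were flooded to 3 cm above the soil and compound was applied directly into the paddy water, with that depth held throughout. After 13 to 15 days in a greenhouse, injury was rated visually against untreated controls on a 0 to 100 scale (100 = complete control).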

rice = test: Test B flooded paddy test; format: in vivo, Oryza sativa; conditions: 500 g ai/ha, Flood; scale of 0 to 100 where 0 is no effect and 100 is complete control
How it was run: as §1

wheat = test: Test A pre-/postemergence herbicide test; format: in vivo, Triticum aestivum; conditions: Postemergence
How it was run: (§2)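 Seeds sown in loam soil/sand blend received a preemergence directed soil spray of test chemical in non-phytotoxic solvent with surfactant; postemergence plants (2–10 cm, one- to two-leaf stage) were sprayed with the same formulation. After about 10 days in greenhouse, injury was rated visually versus untreated controls, 0 (no effect) to 100 (complete control).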

barnyardgrass [1] = test: Test B flooded paddy test; format: in vivo, Echinochloa crus-galli; conditions: 500 g ai/ha, Flood; scale of 0 to 100 where 0 is no effect and 100 is complete control
How it was run: as §1

galium = test: Test A postemergence herbicide test; format: in vivo, Galium aparine
How it was run: (§3)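 Potted in loam soil/sand blend; postemergence application at 1–2 leaf stage (2–10 cm). Greenhouse ~10 d. Visual injury vs untreated, 0–100 scale; 100 = complete control.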

kochia = test: Test A pre-/postemergence herbicide test; format: in vivo, Kochia scoparia; conditions: for Plant response rating, Kochia: 0 to 100 scale
How it was run: as §2

ragweed = test: Test A pre-/postemergence herbicide test; format: in vivo, Ambrosia elatior; conditions: for Plant response rating, Ragweed: 0 to 100 scale
How it was run: as §2

ryegrass, Italian = test: Test A pre-/postemergence herbicide test; format: in vivo, Lolium multiflorum; conditions: for Plant response rating, Ryegrass, Italian: 0 to 100 scale
How it was run: as §2

ducksalad = test: Test B flooded paddy test; format: in vivo, Heteranthera limosa; conditions: 500 g ai/ha, Flood; scale of 0 to 100 where 0 is no effect and 100 is complete control
How it was run: as §1

barnyardgrass [2] = test: Test A pre-/postemergence herbicide test; format: in vivo, Echinochloa crus-galli
How it was run: as §2

corn = test: Test A pre-/postemergence herbicide test; format: in vivo, Zea mays; conditions: Postemergence
How it was run: as §2

blackgrass = test: Test A postemergence herbicide test; format: in vivo, Alopecurus myosuroides
How it was run: as §3

giant foxtail = test: Test A pre-/postemergence herbicide test; format: in vivo, Setaria faberii; conditions: for Plant response rating, Foxtail, Giant: 0 to 100 scale
How it was run: as §2

pigweed = test: Test A pre-/postemergence herbicide test; format: in vivo, Amaranthus retroflexus; conditions: for Plant response rating, Pigweed: 0 to 100 scale
How it was run: as §2

[3] = 125 g ai/ha, 0 to 100 scale, 0 no effect, 100 complete control
[4] = 125 g ai/ha, visual rating, 0 no effect, 100 complete control, approximately 10 days, preemergence
[5] = Postemergence, 125 g ai/ha, 0 no effect, 100 complete control

Cc1cc(C2CNC(=O)C2C(=O)Nc2ccc(F)c(F)c2F)ccc1F (racemic) [Compound 142]
Plant response rating, Sedge, Umbrella (sedge, umbrella): 0 | Plant response rating, Rice (rice): 0 | Plant response rating, Wheat (wheat; [3]): 0 | Wheat plant response rating (0 to 100 scale, 0 is no effect, 100 is complete control) (wheat; 500 g ai/ha): 20 | Plant response rating, Barnyardgrass (barnyardgrass [1]): 75 | Plant response rating, Galium (galium; [3]): 0 | Galium plant response rating (0 to 100 scale, 0 is no effect, 100 is complete control) (galium; 500 g ai/ha): 40 | Plant response rating, Kochia (kochia; [4]): 0 | Plant response rating, Kochia (kochia; [5]): 0 | Kochia plant response rating (0 to 100 scale, 0 is no effect, 100 is complete control) (kochia; Postemergence, 500 g ai/ha): 0 | Plant response rating, Kochia (kochia; preemergence, 500 g ai/ha): 0 | Plant response rating, Ragweed (ragweed; [4]): 0 | Plant response rating, Ragweed (ragweed; [5]): 0 | Ragweed plant response rating (0 to 100 scale, 0 is no effect, 100 is complete control) (ragweed; Postemergence, 500 g ai/ha): 0 | Plant response rating, Ragweed (ragweed; preemergence, 500 g ai/ha): 0 | Plant response rating, Ryegrass, Italian (ryegrass, Italian; [4]): 0 | Plant response rating, Ryegrass, Italian (ryegrass, Italian; [5]): 0 | Ryegrass, Italian plant response rating (0 to 100 scale, 0 is no effect, 100 is complete control) (ryegrass, Italian; Postemergence, 500 g ai/ha): 20 | Plant response rating, Ryegrass, Italian (ryegrass, Italian; preemergence, 500 g ai/ha): 0 | Plant response rating, Ducksalad (ducksalad): 100 | Plant response rating, Barnyardgrass (barnyardgrass [2]; 125 g ai/ha, visual rating, 0 to 100 scale, 0 no effect, 100 complete control, approximately 10 days, preemergence): 90 | Plant response rating, Barnyardgrass (barnyardgrass [2]; Postemergence, 125 g ai/ha, 0 to 100 scale, 0 no effect, 100 complete control): 80 | Barnyardgrass plant response rating (0 to 100 scale, 0 is no effect, 100 is complete control) (barnyardgrass [2]; Postemergence, 500 g ai/ha): 90 | Plant response rating, Barnyardgrass (barnyardgrass [2]; preemergence, 500 g ai/ha, 0 to 100 scale (0 no effect, 100 complete control)): 90 | Plant response rating, Corn (corn; [3]): 0 | Corn plant response rating (0 to 100 scale, 0 is no effect, 100 is complete control) (corn; 500 g ai/ha): 0 | Plant response rating, Blackgrass (blackgrass; [3]): 0 | Blackgrass plant response rating (0 to 100 scale, 0 is no effect, 100 is complete control) (blackgrass; 500 g ai/ha): 30 | Plant response rating, Foxtail, Giant (giant foxtail; [4]): 70 | Plant response rating, Foxtail, Giant (giant foxtail; [5]): 0 | Foxtail, Giant plant response rating (0 to 100 scale, 0 is no effect, 100 is complete control) (giant foxtail; Postemergence, 500 g ai/ha): 50 | Plant response rating, Foxtail, Giant (giant foxtail; preemergence, 500 g ai/ha): 90 | Plant response rating, Pigweed (pigweed; [4]): 0 | Plant response rating, Pigweed (pigweed; [5]): 0 | Pigweed plant response rating (0 to 100 scale, 0 is no effect, 100 is complete control) (pigweed; Postemergence, 500 g ai/ha): 0 | Plant response rating, Pigweed (pigweed; preemergence, 500 g ai/ha): 0
